Here are results for four molecules from patent publication US8828997B2, “2,3-dihydro-1H-imidazo(1,2-a)pyrimidin-5-one derivatives, preparation thereof, and pharmaceutical use thereof” (Sanofi, priority 2009, dated 2014).

What all share (type): cell-based
The subject of assay [1] is P. falciparum (highly chloroquine-resistant strain Fcm29-Cameroon). Briefly: Antimalarial activity test (radioactive micromethod of Desjardins, tritiated hypoxanthine incorporation). The conditions noted are these: Plasmodium falciparum, Erythrocyte, infected human erythrocytes, 48 h. Here is the method: Antimalarial Activity Test
The antimalarial activity tests are carried out according to the radioactive micromethod of Desjardins (R. E. Desjardins, C. J. Canfield, J. D. Haynes, J. D. Chulay, Antimicrob. Agents Chemother., 1979, 16, 710-718). The assays are carried out in 96-well microplates (Test Plates Ref. 92696, Techno Plastic Products Ag, Zollstrasse 155, CH-8219 Trasadingen). The P. falciparum strains are cultured in solutions of RPMI 1640 supplemented with 5% of human serum with a haematocrit at 2% and a blood parasite concentration at 1.5%. For each assay, the parasites are incubated with selected concentrations of drugs for 48 h at 37° C. in a humid atmosphere and at 5% CO2. Artemisinin, artesunate and also chloroquine diphosphate are used as reference molecules. The first dilution of the drug is prepared at 1 mg/ml in dimethyl sulphoxide. The range of dilutions of the successive daughter solutions is also prepared in dimethyl sulphoxide. Each daughter dilution is subsequently diluted to 1/50 in RPMI 1640 supplemented with 5% of human serum, all the dilutions being carried out at 37° C. These dilutions are then added to the parasites in culture in the microplates. After addition of the drug, the parasites are in culture in RPMI 1640 containing 5% of human serum and 1% of dimethyl sulphoxide. The parasite growth is measured by incorporation of tritiated hypoxanthine (added 24 h after the beginning of the exposure to the drug) compared with the incorporation in the absence of drug.
The activity of the product is translated to % inhibition of the growth of P. falciparum (highly chloroquine-resistant strain Fcm29-Cameroon) at 1 μM and 0.1 μM in an in vitro test using infected human erythrocytes.

Assay [2] concerns AKT protein phosphorylated on serine 473 (P-AKT-S473) in PC3 human prostate carcinoma cells. Briefly: pAKT expression in PC3 human prostate carcinoma cells measured by MSD Multi-spot Biomarker detection (test B). Particulars: Homo sapiens, PC-3, P-AKT-S473, PC3 cells, MSD sandwich immunoassay, 1 to 2 h incubation, absolute IC50. As to the method: The inhibitory activity of the molecules on AKT phosphorylation is measured either by western blotting using the technique described below, or by the MSD Multi-spot Biomarker detection technique from Meso Scale Discovery also described below.
Study of pAKT Expression in PC3 Human Prostate Carcinoma Cells Measured by the MSD Multi-Spot Biomarker Detection Technique from Meso Scale Discovery (Test B):
This test is based on measuring the expression of the AKT protein phosphorylated on serine 473 (P-AKT-S473), in the PC3 human prostate carcinoma line, by means of the technique based on a sandwich immunoassay using the MSD Multi-spot Biomarker Detection kit from Meso Scale Discovery: phospho-Akt (Ser473) whole cell lysate kit (#K151CAD) or phospho-Akt (Ser473)/Total Akt whole cell lysate kit (#K151OOD). The primary antibody specific for P-AKT-S473 (Kit #K151CAD) is coated onto an electrode in each well of the 96-well plates of the MSD kit: after the addition of a protein lysate to each well, the signal is visualised by adding a secondary detection antibody labelled with an electrochemoluminescent compound. The procedure followed is that described in the kit.
On day 1, the PC3 cells are seeded into 96-well plates (TPP, #92096) at the concentration of 35 000 cells/well in 200 μl of DMEM medium (DMEM Gibco #11960-044) containing 10% of foetal calf serum (FCS Gibco, #10500-056) and 1% glutamine (L-Glu Gibco #25030-024), and incubated at 37° C., 5% CO2, overnight.
On day 2, the cells are incubated in the presence or absence of the test products for 1 to 2 h at 37° C. in the presence of 5% of CO2. The molecules, diluted in dimethyl sulphoxide (DMSO Sigma #D2650), are added from a 20-times concentrated stock solution, the final percentage of DMSO being 0.1%. The molecules are tested either at a single concentration of less than or equal to 10 μM, or at increasing concentrations in a range that can extend from less than 1 nM to 10 μM.
After this incubation, the cells are lysed for the preparation of the proteins. For this, after the culture medium has been drawn off, 50 μl of complete Tris Lysis Buffer of the MSD kit containing the protease and phosphatase inhibitor solutions are added to the wells and the cells are lysed for 1 h at 4° C. with shaking. At this stage, the plates containing the lysates can be stored at −20° C. or at −80° C.
The wells of the 96-well plates of the MSD kit are saturated for 1 h at ambient temperature with the blocking solution of the MSD kit. Four washes are carried out with 150 μl of Tris Wash Buffer of the MSD kit. The lysates previously prepared are transferred into the 96-well multi-spot plates of the MSD kit and incubated for 1 h at ambient temperature, with shaking. Four washes are carried out with 150 μl of Tris Wash Buffer of the MSD kit. 25 μl of the MSD sulfo-tag detection antibody solution are added to the wells and incubated for 1 h at ambient temperature, with shaking. Four washes are carried out with 150 μl of Tris Wash Buffer of the MSD kit. 150 μl of Read Buffer of the MSD kit are added to the wells and the plates are read immediately on the S12400 instrument from Meso Scale Discovery.
The instrument measures a signal for each well. Wells without cells and containing the lysis buffer serve to determine the background noise that will be subtracted from all the measurements (min). The wells containing cells in the absence of product and in the presence of 0.1% DMSO are considered to be the 100% signal (max). The percentage inhibition is calculated for each concentration of test product according to the following formula: (1-((test−min)/(max−min)))×100.
The activity of the product is translated to IC50, obtained from a dose-response curve of the various concentrations tested and representing the dose giving 50% specific inhibition (absolute IC50). 2 independent experiments make it possible to calculate the mean of the IC50 values.

The subject of assay [3] is translocation of the LC3 protein in Hela GFP-LC3 cells. Briefly: Translocation of the LC3 protein in Hela human cells measured by image analysis cytometry (test C, autophagy). Particulars: Homo sapiens, HeLa, 2 h, EBSS + 10 μM hydroxychloroquine, cells with LC3 granulations, absolute IC50. As to the method: Inhibitory activity of the molecules on autophagy is measured by means of the translocation of the LC3 protein from the cytoplasm to the autophagosomes. For this, Hela cells were transfected with a vector encoding the chimeric protein GFP-LC3. A Hela clone stably expressing the GFP-LC3 protein was selected.
Study of the Translocation of the LC3 Protein in Hela Human Cells, Measured by Image Analysis Cytometry (Test C):
On day 1, the Hela GFP-LC3 cells are seeded into 96-well plates coated with poly-D-lysine (Greiner, #655946) at the concentration of 15000 cells/well in 200 μl of DMEM medium (DMEM Gibco #11960-044) containing 10% of foetal calf serum (FCS Gibco, #10500-056) and 1% glutamine (L-Glu Gibco #25030-024), and incubated at 37° C., 5% CO2, overnight.
On day 2, the cells are washed twice with EBSS (Sigma #E3024). The cells are then incubated in EBSS, 10 μM hydroxychloroquine and test products, for 2 hours at 37° C. in the presence of 5% CO2. The molecules are diluted in dimethyl sulphoxide (DMSO Sigma #D2650), the final DMSO percentage being 0.1%. The molecules are tested at increasing concentrations in a range that can extend from 10 nM to 1 μM.
After this incubation, the cells are fixed with 4% paraformaldehyde (Sigma #HT501128 4L) for 10 min. The cells are then washed twice with PBS and the nuclei then stained with 2 μg/ml of Hoechst 33342 (Invitrogen #H3570). The 96-well plates are then read with the iCyte image analysis cytometer (Compucyte).
The activity of the product is translated to IC50, obtained from a dose-response curve of various concentrations tested and representing the dose giving 50% specific inhibition (absolute IC50). 2 independent experiments make it possible to calculate the mean of the IC50 values.

For the molecule `COc1cccc(CCN2c3nc(N4CCOCC4)cc(=O)n3C[C@@]2(C)C(F)(F)F)c1` [Example 26, (2S)-1-[2-(3-Methoxyphenyl)ethyl]-2-methyl-7-(morpholin-4-yl)-2-(trifluoromethyl)-2,3-dihydroimidazo[1,2-a]pyrimidin-5(1H)-one], in assay [1], the inhibition at 0.1 µM came to 14% and the inhibition at 1 µM was determined as 75%. In assay [2], the half-inhibitory concentration (IC50) worked out at 16 nM.
As for `C[C@@]1(C(F)(F)F)Cn2c(nc(N3CCOCC3)cc2=O)N1CCc1ccccc1Cl` [Example 27, (2S)-1-[2-(2-Chlorophenyl)ethyl]-2-methyl-7-(morpholin-4-yl)-2-(trifluoromethyl)-2,3-dihydroimidazo[1,2-a]pyrimidin-5(1H)-one], in assay [1], the inhibition at 1 µM amounted to 53%. Further, the half-inhibitory concentration (IC50) is 24 nM in assay [2] and 51 nM in assay [3].
Turning to `C[C@@]1(C(F)(F)F)Cn2c(nc(N3CCOCC3)cc2=O)N1CCc1ccc(Cl)cc1` [Example 28, (2S)-1-[2-(4-Chlorophenyl)ethyl]-2-methyl-7-(morpholin-4-yl)-2-(trifluoromethyl)-2,3-dihydroimidazo[1,2-a]pyrimidin-5(1H)-one], the inhibition at 0.1 µM in assay [1] came out at 14%. For the same molecule, the inhibition at 1 µM in assay [1] is 53%. The IC50 came out at 10 nM in assay [2] and 198 nM in assay [3].
For the molecule `C[C@@]1(C(F)(F)F)Cn2c(nc(N3CCOCC3)cc2=O)N1CCc1cccc(Cl)c1` [Example 29, (2S)-1-[2-(3-Chlorophenyl)ethyl]-2-methyl-7-(morpholin-4-yl)-2-(trifluoromethyl)-2,3-dihydroimidazo[1,2-a]pyrimidin-5(1H)-one], the inhibition at 1 µM in assay [1] amounted to 52%. Besides, the concentration for half-maximal inhibition (IC50) in assay [2] amounted to 6 nM; in assay [3], 261 nM.
